# Experiments:
# FAAH [1] = biological target: T1, FAAH (Mus musculus (Mouse), UniProt O08914); assay: Mouse brain proteomes from inhibitor treated mice (oral gavage, sacrificed 4 h after administration, ABPP analysis), FAAH; type: in vivo, mouse (C57Bl/6J); details: 5 mg/kg oral gavage
# Description: (§1) Preparation of Mouse Brain Proteomes from Inhibitor Treated Mice.
# (§2) Inhibitors were administered to wild-type C57Bl/6J by oral gavage in a vehicle, e.g. PEG400/Ethanol/PBS (7/2/1). Each animal was sacrificed 4 h following administration and brain proteomes were prepared and analyzed according to previously established methods (See Niphakis, M. J., et al. (2011) ACS Chem. Neurosci. and Long, J. Z., et al. Nat. Chem. Biol. 5:37-44). Data from this assay is shown in Table 2 (% inhibition at 5 mg/kg).
# MAGL [2] = biological target: T2, MAGL (Mus musculus (Mouse), UniProt O35678); assay: In vitro competitive activity-based protein profiling (mouse brain membrane fraction or cell lysates), MAGL band; type: biochemical; details: mouse proteome; for inhibition at 1 µM: read-out: MAGL % Inh 1 μM (mouse); for IC50: competitive ABPP
# Description: In Vitro Competitive Activity-Based Protein Profiling.
# Proteomes (mouse brain membrane fraction or cell lysates) (50 μL, 1.0 mg/mL total protein concentration) were preincubated with varying concentrations of inhibitors at 37° C. After 30 min, FP—Rh (1.0 μL, 50 μM in DMSO) was added and the mixture was incubated for another 30 min at 37° C. Reactions were quenched with SDS loading buffer (50 μL-4×) and run on SDS-PAGE.
# FAAH [3] = biological target: T1, FAAH; assay: In vitro competitive activity-based protein profiling (mouse brain membrane fraction or cell lysates), FAAH band; type: biochemical; details: mouse proteome; for inhibition at 1 µM: read-out: FAAH % Inh 1 μM (mouse); for IC50: competitive ABPP
# In short: (§3)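 Mouse proteome samples (brain membrane fraction or cell lysate, 1.0 mg/mL protein) were pretreated with varying inhibitor concentrations and subsequently probed with fluorophosphonate-rhodamine, each step lasting 30 min at 37° C. Labelled proteins were separated by SDS-PAGE, and band fluorescence was imaged and quantified.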
# ABHD6 [4] = biological target: T3, ABHD6 (Mus musculus (Mouse), UniProt Q8R2Y0); assay: In vitro competitive activity-based protein profiling (mouse brain membrane fraction or cell lysates), ABHD6 band; type: biochemical; details: mouse proteome; for inhibition at 1 µM: read-out: ABHD6 % Inh 1 μM (mouse); for IC50: competitive ABPP
# In short: as §3
# ABHD6 [5] = biological target: T3, ABHD6; assay: Mouse brain proteomes from inhibitor treated mice (oral gavage, sacrificed 4 h after administration, ABPP analysis), ABHD6; type: in vivo, mouse (C57Bl/6J); details: 5 mg/kg oral gavage
# Description: as §1, §2
# MAGL [6] = biological target: T2, MAGL; assay: Mouse brain proteomes from inhibitor treated mice (oral gavage, sacrificed 4 h after administration, ABPP analysis); type: in vivo, mouse (C57Bl/6J); details: 5 mg/kg oral gavage
# Description: as §1, §2
# T2 sequence (O35678 whole entry): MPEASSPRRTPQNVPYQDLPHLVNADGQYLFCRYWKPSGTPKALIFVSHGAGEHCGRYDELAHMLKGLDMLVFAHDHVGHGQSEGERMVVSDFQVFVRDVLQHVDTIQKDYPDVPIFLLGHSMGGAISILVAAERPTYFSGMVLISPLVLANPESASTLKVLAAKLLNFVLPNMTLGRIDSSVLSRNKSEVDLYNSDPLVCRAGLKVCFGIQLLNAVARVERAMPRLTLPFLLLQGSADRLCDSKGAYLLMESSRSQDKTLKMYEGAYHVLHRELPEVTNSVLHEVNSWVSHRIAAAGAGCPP
# T3 sequence (Q8R2Y0 whole entry): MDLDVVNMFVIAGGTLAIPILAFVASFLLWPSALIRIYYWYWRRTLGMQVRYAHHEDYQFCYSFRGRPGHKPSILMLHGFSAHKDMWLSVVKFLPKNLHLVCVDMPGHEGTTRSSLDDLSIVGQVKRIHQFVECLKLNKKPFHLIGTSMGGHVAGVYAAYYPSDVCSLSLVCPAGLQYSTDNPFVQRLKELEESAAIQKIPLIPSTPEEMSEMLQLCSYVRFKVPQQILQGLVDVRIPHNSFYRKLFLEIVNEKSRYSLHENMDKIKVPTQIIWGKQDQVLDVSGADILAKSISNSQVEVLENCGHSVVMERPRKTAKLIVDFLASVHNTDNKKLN
# T1 sequence (O08914 whole entry): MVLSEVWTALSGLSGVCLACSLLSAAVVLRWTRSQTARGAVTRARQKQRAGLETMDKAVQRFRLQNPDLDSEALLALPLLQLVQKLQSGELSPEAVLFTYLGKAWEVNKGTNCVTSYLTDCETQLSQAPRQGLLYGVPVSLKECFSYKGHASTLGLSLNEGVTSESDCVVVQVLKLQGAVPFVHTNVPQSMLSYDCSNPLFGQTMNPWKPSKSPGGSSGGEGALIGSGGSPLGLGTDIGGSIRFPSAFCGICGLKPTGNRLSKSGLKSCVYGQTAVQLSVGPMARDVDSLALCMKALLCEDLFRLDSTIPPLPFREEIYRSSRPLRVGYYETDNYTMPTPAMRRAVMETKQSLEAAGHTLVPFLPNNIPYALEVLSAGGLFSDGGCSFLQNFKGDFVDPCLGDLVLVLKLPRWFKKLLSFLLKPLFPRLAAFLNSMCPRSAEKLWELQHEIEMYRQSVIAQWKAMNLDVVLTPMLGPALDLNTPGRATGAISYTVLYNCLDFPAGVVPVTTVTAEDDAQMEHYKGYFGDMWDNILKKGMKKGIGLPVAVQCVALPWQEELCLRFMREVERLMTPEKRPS
Compound,FAAH % Inh 5 mg/kg (mouse) (FAAH [1]),inhibition at 1 µM (MAGL [2]) [%],IC50 (MAGL [2]) [nM],inhibition at 1 µM (FAAH [3]) [%],IC50 (FAAH [3]) [nM],inhibition at 1 µM (ABHD6 [4]) [%],IC50 (ABHD6 [4]) [nM],ABHD6 % Inh 5 mg/kg (mouse) (ABHD6 [5]),MAGL % Inh 5 mg/kg (mouse) (MAGL [6])
"O=C(OC(C(F)(F)F)C(F)(F)F)N1CCC2(CCCN2Cc2ccc(C(F)(F)F)cc2N2CCOCC2)CC1 [Example 67, 1,1,1,3,3,3-Hexafluoropropan-2-yl 1-(2-morpholino-4-(trifluoromethyl)benzyl)-1,8-diazaspiro[4.5]decane-8-carboxylate]",# (# is <25%),> 75,< 100,< 25,> 1000,< 25,> 1000,# (# is <25%),### (### is ≥75%)
"COc1cccc(CN2CCCC23CCN(C(=O)OC(C(F)(F)F)C(F)(F)F)CC3)c1Cl [Example 7, 1,1,1,3,3,3-Hexafluoropropan-2-yl 1-(2-chloro-3-methoxybenzyl)-1,8-diazaspiro[4.5]decane-8-carboxylate]",### (### is ≥75%),–,< 100,–,> 1000,–,> 1000,# (# is <25%),### (### is ≥75%)
"O=C(OC(C(F)(F)F)C(F)(F)F)N1CCC2(CCN(Cc3ccc(Cl)cc3N3CC4COCC4C3)C2)CC1 (stereo not drawn) [Example 25, 1,1,1,3,3,3-Hexafluoropropan-2-yl 2-(4-chloro-2-(tetrahydro-1H-furo[3,4-c]pyrrol-5(3H)-yl)benzyl)-2,8-diazaspiro[4.5]decane-8-carboxylate]",# (# is <25%),> 75,< 100,< 25,> 1000,≥ 75,100 to 1000,# (# is <25%),## (## is equal to or greater than 25% but less than 75%)
"O=C(OC(C(F)(F)F)C(F)(F)F)N1CCC2(CCCN2Cc2cc(N3CCS(=O)(=O)CC3)cc(C(F)(F)F)c2)CC1 [Example 42, 1,1,1,3,3,3-Hexafluoropropan-2-yl 1-(3-(1,1-dioxidothiomorpholino)-5-(trifluoromethyl)benzyl)-1,8-diazaspiro[4.5]decane-8-carboxylate]",# (# is <25%),> 75,< 100,< 25,> 1000,< 25,> 1000,# (# is <25%),### (### is ≥75%)
"O=C(OC(C(F)(F)F)C(F)(F)F)N1CCC2(CCN(Cc3cccc(Cl)c3N3CCC(F)CC3)C2)CC1 [Example 65, 1,1,1,3,3,3-Hexafluoropropan-2-yl 2-(3-chloro-2-(4-fluoropiperidin-1-yl)benzyl)-2,8-diazaspiro[4.5]decane-8-carboxylate]",# (# is <25%),> 75,< 100,< 25,> 1000,25 to 75,> 1000,## (## is equal to or greater than 25% but less than 75%),## (## is equal to or greater than 25% but less than 75%)
"O=C(OC(C(F)(F)F)C(F)(F)F)N1CCC2(CCCN2Cc2cccc(N3CCCCC3)c2Cl)CC1 [Example 80, 1,1,1,3,3,3-Hexafluoropropan-2-yl 1-(2-chloro-3-(piperidin-1-yl)benzyl)-1,8-diazaspiro[4.5]decane-8-carboxylate]",## (## is equal to or greater than 25% but less than 75%),> 75,< 100,< 25,> 1000,< 25,> 1000,## (## is equal to or greater than 25% but less than 75%),### (### is ≥75%)
"O=C(OC(C(F)(F)F)C(F)(F)F)N1CCC2(CCCN2Cc2ccc(Cl)cc2N2CCC2)CC1 [Example 107, 1,1,1,3,3,3-Hexafluoropropan-2-yl 1-(2-(azetidin-1-yl)-4-chlorobenzyl)-1,8-diazaspiro[4.5]decane-8-carboxylate]",## (## is equal to or greater than 25% but less than 75%),> 75,< 100,< 25,> 1000,< 25,> 1000,# (# is <25%),### (### is ≥75%)
"O=C(OC(C(F)(F)F)C(F)(F)F)N1CCC2(CCCN2Cc2ccc3c(c2)COC3)CC1 [Example 151, 1,1,1,3,3,3-Hexafluoropropan-2-yl 1-((1,3-dihydroisobenzofuran-5-yl)methyl)-1,8-diazaspiro[4.5]decane-8-carboxylate]",## (## is equal to or greater than 25% but less than 75%),> 75,< 100,< 25,> 1000,< 25,> 1000,## (## is equal to or greater than 25% but less than 75%),### (### is ≥75%)

# The remaining lines, values ahead:
FAAH % Inh 5 mg/kg (mouse) (FAAH [1]),inhibition at 1 µM (MAGL [2]) [%],IC50 (MAGL [2]) [nM],inhibition at 1 µM (FAAH [3]) [%],IC50 (FAAH [3]) [nM],inhibition at 1 µM (ABHD6 [4]) [%],IC50 (ABHD6 [4]) [nM],ABHD6 % Inh 5 mg/kg (mouse) (ABHD6 [5]),MAGL % Inh 5 mg/kg (mouse) (MAGL [6]),Compound
# (# is <25%),> 75,< 100,< 25,> 1000,< 25,> 1000,# (# is <25%),### (### is ≥75%),"O=C(OC(C(F)(F)F)C(F)(F)F)N1CCC2(CCCN2Cc2ccc(C(F)(F)F)cc2N2CC3COCC3C2)CC1 (stereo not drawn) [Example 97, 1,1,1,3,3,3-Hexafluoropropan-2-yl 1-(2-(tetrahydro-1H-furo[3,4-c]pyrrol-5(3H)-yl)-4-(trifluoromethyl)benzyl)-1,8-diazaspiro[4.5]decane-8-carboxylate]"
# (# is <25%),> 75,< 100,< 25,> 1000,< 25,> 1000,# (# is <25%),### (### is ≥75%),"O=C(OC(C(F)(F)F)C(F)(F)F)N1CCC2(CCCN2Cc2ccc(Cl)cc2N2CC3COCC3C2)CC1 (stereo not drawn) [Example 108, 1,1,1,3,3,3-Hexafluoropropan-2-yl 1-(4-chloro-2-(tetrahydro-1H-furo[3,4-c]pyrrol-5(3H)-yl)benzyl)-1,8-diazaspiro[4.5]decane-8-carboxylate]"
# (# is <25%),> 75,< 100,< 25,> 1000,< 25,> 1000,# (# is <25%),### (### is ≥75%),"O=C(OC(C(F)(F)F)C(F)(F)F)N1CCC2(CCCN2Cc2ccc(C(F)(F)F)cc2N2CCC2)CC1 [Example 96, 1,1,1,3,3,3-Hexafluoropropan-2-yl 1-(2-(azetidin-1-yl)-4-(trifluoromethyl)benzyl)-1,8-diazaspiro[4.5]decane-8-carboxylate]"

# Source: patent US10030020B2, “Spirocycle compounds and methods of making and using same” (Abide Therapeutics, Inc., priority 2016, dated 2018)
